Measured values reported in paper PMC6915728 (Nature Communications, 2019).
Where two headings read alike, the source gives them in different places.

Key:
E. coli BW25113 ΔmlaD = assay: MIC, serial broth dilution, mlaD knockout strain vs wild type; assay type: cell-based, Escherichia coli; conditions: mlaD deletion strain relative to control (E. coli BW25113); 3 replicates each; from optical density values of serial dilution plates, AMP in µg ml-1
Procedure: What could be the mechanism behind the antagonistic action of this pathway on membrane- versus intracellular-targeting AMPs? Since MlaD is part of a protein complex, it may lead to a loss-of-function effect upon overexpression[41],[42]. To test this, we asked whether overexpression and deletion of mlaD cause similar changes in susceptibility to a representative set of membrane- and intracellular-targeting AMPs.
Minimum inhibitory concentrations (MIC) were determined with a standard serial broth dilution technique with a minor modification. Specifically, instead of a two-fold dilution series, smaller AMP concentration steps were used (typically 1.2-fold) for two reasons. […] Second, gene overexpressions caused typically only small changes in the MICs of AMPs and therefore higher resolution was required. The protocol was as follows. From a stock solution of an AMP, 12-steps serial dilution was prepared in fresh MS medium in 96-well microtiter plates. Each AMP was represented in 11 different concentrations (3 wells per AMP concentration per strain). Three wells contained only medium to check the growth in the absence of AMP. After overnight growth in MS medium supplemented with chloramphenicol, bacterial strains were diluted 20-fold into fresh MS medium and grown until the cell density reached OD600 ~1. Cells were induced by 100 µM of IPTG and incubated for 1 h at 30 °C with continuous shaking at 300 rpm. Following incubation, approximately half-million cells were inoculated into the wells of the 96-well microtiter plate with a 96‐pin replicator. We used three independent replicates for each strain and the corresponding control. Two rows in the 96-well plate contained only MS medium in order to obtain the background OD value of the medium. Plates were incubated at 30 °C with continuous shaking at 300 rpm. After 20–24 h of incubation, OD600 values were measured in a microplate reader (Biotek Synergy 2).
A mlaD knockout strain of E. coli BW25113 carrying a kanamycin resistance cassette in the position of the gene was selected from the KEIO collection. The resistance marker was removed using plasmid-borne (pFT-A) expression of FLP recombinase leading to excision of the kanamycin resistance cassette. Cassette excision was verified by a polymerase chain reaction using the primers mlaD_del_ver_Fw (5′- […]) and mlaD_del_ver_Rev (5′- […]).
Supplementary Figure 13. […] The bacterial susceptibility of the mutant to AMPs was tested by MIC determination. Growth is shown relative to growth in the absence of the corresponding AMP. The blue line represents the mlaD knockout strain and the orange line represents the control strain (wild-type E. coli BW25113). Error bars indicate the standard errors based on three biological replicates. Source data are provided in the Source Data file.

[1] = test system: AMP-evolved E. coli lines; conditions: ref Spohn et al 2019, cited from earlier work
Description: Supplement 41467_2019_13618_MOESM13_ESM.xlsx, sheet "Figure 6 and S15" | column: A comprehensive dataset of antimicrobial susceptibility of AMP-adapted lines to antimicrobial peptides (AMPs).

bacterial membrane = conditions: literature mining; ref superscript numbers in the cell, listed in Supplementary Data 7 sheet References; cited from earlier work
Description: Supplement 41467_2019_13618_MOESM10_ESM.xlsx, sheet "AMP details" | column: Pore formation

Sequence	Average relative change in MIC (E. coli BW25113 ΔmlaD)	Relative change in MIC (MIC of the AMP-adpated line / MIC of the ancestral strain) ([1]; AMP-adapted line BAC5_3)	Relative change in MIC (MIC of the AMP-adpated line / MIC of the ancestral strain) ([1]; AMP-adapted line BAC5_5)	Relative change in MIC (MIC of the AMP-adpated line / MIC of the ancestral strain) ([1]; AMP-adapted line BAC5_7)	Relative change in MIC (MIC of the AMP-adpated line / MIC of the ancestral strain) ([1]; AMP-adapted line BAC5_10)	Relative change in MIC (MIC of the AMP-adpated line / MIC of the ancestral strain) ([1]; AMP-adapted line CAP18_2)	Relative change in MIC (MIC of the AMP-adpated line / MIC of the ancestral strain) ([1]; AMP-adapted line CAP18_5)	Relative change in MIC (MIC of the AMP-adpated line / MIC of the ancestral strain) ([1]; AMP-adapted line CAP18_6)	Relative change in MIC (MIC of the AMP-adpated line / MIC of the ancestral strain) ([1]; AMP-adapted line CAP18_8)	Relative change in MIC (MIC of the AMP-adpated line / MIC of the ancestral strain) ([1]; AMP-adapted line CAP18_10)	Relative change in MIC (MIC of the AMP-adpated line / MIC of the ancestral strain) ([1]; AMP-adapted line HBD3_3)	Relative change in MIC (MIC of the AMP-adpated line / MIC of the ancestral strain) ([1]; AMP-adapted line HBD3_6)	Relative change in MIC (MIC of the AMP-adpated line / MIC of the ancestral strain) ([1]; AMP-adapted line HBD3_8)	Relative change in MIC (MIC of the AMP-adpated line / MIC of the ancestral strain) ([1]; AMP-adapted line HBD3_10)	Relative change in MIC (MIC of the AMP-adpated line / MIC of the ancestral strain) ([1]; AMP-adapted line PEX_1)	Relative change in MIC (MIC of the AMP-adpated line / MIC of the ancestral strain) ([1]; AMP-adapted line PEX_4)	Relative change in MIC (MIC of the AMP-adpated line / MIC of the ancestral strain) ([1]; AMP-adapted line PEX_5)	Relative change in MIC (MIC of the AMP-adpated line / MIC of the ancestral strain) ([1]; AMP-adapted line PEX_6)	Relative change in MIC (MIC of the AMP-adpated line / MIC of the ancestral strain) ([1]; AMP-adapted line PEX_7)	Relative change in MIC (MIC of the AMP-adpated line / MIC of the ancestral strain) ([1]; AMP-adapted line PR39_1)	further results
LLGDFFRKSKEKIGKEFKRIVQRIKDFLRNLVPRTES [LL37, LL-37 human cathelicidin, human host-defense peptide; disrupts cell membrane; cluster C2]	2.25	1	1.2	1.1	1.1	6.3	3.7	1.2	6.3	8.2	1.7	1.2	1.7	1.7	1.1	16	0.9	1	1	1.2	Relative change in MIC (MIC of the AMP-adpated line / MIC of the ancestral strain) ([1]; AMP-adapted line PR39_2): 1.2; Relative change in MIC (MIC of the AMP-adpated line / MIC of the ancestral strain) ([1]; AMP-adapted line PR39_5): 0.9; Relative change in MIC (MIC of the AMP-adpated line / MIC of the ancestral strain) ([1]; AMP-adapted line PR39_7): 1; Relative change in MIC (MIC of the AMP-adpated line / MIC of the ancestral strain) ([1]; AMP-adapted line PR39_10): 0.8; Relative change in MIC (MIC of the AMP-adpated line / MIC of the ancestral strain) ([1]; AMP-adapted line PROA_2): 1; Relative change in MIC (MIC of the AMP-adpated line / MIC of the ancestral strain) ([1]; AMP-adapted line PROA_3): 0.8; Relative change in MIC (MIC of the AMP-adpated line / MIC of the ancestral strain) ([1]; AMP-adapted line PROA_7): 0.9; Relative change in MIC (MIC of the AMP-adpated line / MIC of the ancestral strain) ([1]; AMP-adapted line PROA_8): 1; Relative change in MIC (MIC of the AMP-adpated line / MIC of the ancestral strain) ([1]; AMP-adapted line PROA_9): 0.9; Relative change in MIC (MIC of the AMP-adpated line / MIC of the ancestral strain) ([1]; AMP-adapted line PXB_2): 1; Relative change in MIC (MIC of the AMP-adpated line / MIC of the ancestral strain) ([1]; AMP-adapted line PXB_5): 0.9; Relative change in MIC (MIC of the AMP-adpated line / MIC of the ancestral strain) ([1]; AMP-adapted line PXB_6): 1; Relative change in MIC (MIC of the AMP-adpated line / MIC of the ancestral strain) ([1]; AMP-adapted line PXB_8): 1; Relative change in MIC (MIC of the AMP-adpated line / MIC of the ancestral strain) ([1]; AMP-adapted line PXB_10): 1; Pore formation (whether AMP makes pores in the bacterial membrane) (bacterial membrane): Yes22
RWCFRVCYRGICYRKCR [TPII, Tachyplesin II, antimicrobial peptide from Japanese horseshoe crab; disrupts cell membrane; cluster C1]	1.35	1	1	1.1	1.1	1.1	1	1	1.1	1	1.2	1.2	1.2	1.2	1.1	1.2	1.1	1	1	1	Relative change in MIC (MIC of the AMP-adpated line / MIC of the ancestral strain) ([1]; AMP-adapted line LL37_1): 1.1; Relative change in MIC (MIC of the AMP-adpated line / MIC of the ancestral strain) ([1]; AMP-adapted line LL37_3): 1.1; Relative change in MIC (MIC of the AMP-adpated line / MIC of the ancestral strain) ([1]; AMP-adapted line LL37_6): 1; Relative change in MIC (MIC of the AMP-adpated line / MIC of the ancestral strain) ([1]; AMP-adapted line LL37_7): 1; Relative change in MIC (MIC of the AMP-adpated line / MIC of the ancestral strain) ([1]; AMP-adapted line LL37_10): 1; Relative change in MIC (MIC of the AMP-adpated line / MIC of the ancestral strain) ([1]; AMP-adapted line PR39_2): 0.9; Relative change in MIC (MIC of the AMP-adpated line / MIC of the ancestral strain) ([1]; AMP-adapted line PR39_5): 0.9; Relative change in MIC (MIC of the AMP-adpated line / MIC of the ancestral strain) ([1]; AMP-adapted line PR39_7): 0.9; Relative change in MIC (MIC of the AMP-adpated line / MIC of the ancestral strain) ([1]; AMP-adapted line PR39_10): 0.9; Relative change in MIC (MIC of the AMP-adpated line / MIC of the ancestral strain) ([1]; AMP-adapted line PROA_2): 1.1; Relative change in MIC (MIC of the AMP-adpated line / MIC of the ancestral strain) ([1]; AMP-adapted line PROA_3): 0.8; Relative change in MIC (MIC of the AMP-adpated line / MIC of the ancestral strain) ([1]; AMP-adapted line PROA_7): 1; Relative change in MIC (MIC of the AMP-adpated line / MIC of the ancestral strain) ([1]; AMP-adapted line PROA_8): 1; Relative change in MIC (MIC of the AMP-adpated line / MIC of the ancestral strain) ([1]; AMP-adapted line PROA_9): 1.1; Relative change in MIC (MIC of the AMP-adpated line / MIC of the ancestral strain) ([1]; AMP-adapted line PXB_2): 1.1; Relative change in MIC (MIC of the AMP-adpated line / MIC of the ancestral strain) ([1]; AMP-adapted line PXB_5): 1; Relative change in MIC (MIC of the AMP-adpated line / MIC of the ancestral strain) ([1]; AMP-adapted line PXB_6): 1.1; Relative change in MIC (MIC of the AMP-adpated line / MIC of the ancestral strain) ([1]; AMP-adapted line PXB_8): 1; Relative change in MIC (MIC of the AMP-adpated line / MIC of the ancestral strain) ([1]; AMP-adapted line PXB_10): 1.1; Pore formation (whether AMP makes pores in the bacterial membrane) (bacterial membrane): Yes1
